In one data set the target is T1, human P2X7 (Homo sapiens, UniProt Q99572).
T1 construct: 1321N1 cells stably expressing the full length human P2X7 gene (1321N1-hP2X7)
T1 sequence (Q99572 1-595): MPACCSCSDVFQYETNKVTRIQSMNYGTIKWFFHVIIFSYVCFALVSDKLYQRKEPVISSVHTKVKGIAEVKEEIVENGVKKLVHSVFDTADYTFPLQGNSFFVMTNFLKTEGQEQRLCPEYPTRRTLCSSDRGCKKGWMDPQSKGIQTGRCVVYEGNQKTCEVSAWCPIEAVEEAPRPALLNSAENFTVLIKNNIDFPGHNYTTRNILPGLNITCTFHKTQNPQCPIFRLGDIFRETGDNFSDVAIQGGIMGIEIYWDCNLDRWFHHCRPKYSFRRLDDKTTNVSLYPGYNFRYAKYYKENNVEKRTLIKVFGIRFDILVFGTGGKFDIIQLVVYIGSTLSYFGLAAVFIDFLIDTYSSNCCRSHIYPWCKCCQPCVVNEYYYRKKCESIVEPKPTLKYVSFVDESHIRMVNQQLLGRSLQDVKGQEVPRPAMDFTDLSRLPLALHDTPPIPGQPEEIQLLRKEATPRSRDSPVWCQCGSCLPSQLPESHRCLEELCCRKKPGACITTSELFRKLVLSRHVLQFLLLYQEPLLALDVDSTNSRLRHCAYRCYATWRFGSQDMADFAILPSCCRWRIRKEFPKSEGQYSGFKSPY
The data set can be described thus: Intracellular Calcium Flux (FLIPR) Assay. Type of data set: cell-based. The following applies: 1321N1 cells stably expressing full length human P2X7; agonist 100 μM BzATP; fluo-3 calcium flux; read-out: FLIPR pIC50 hP2X7-1321n1 (converted). On the procedure: Stock solutions of compounds were prepared from powders as a 10 mM DMSO stock solution. These solutions were stored at RT during the two week period of these experiments to prevent freeze-thaw of the DMSO stocks. The DMSO stocks were added to the appropriate assay buffer at a concentration of 10 μM, and then diluted serially to the final concentrations that were tested. No observable precipitate was formed at any time during this process. The aqueous solutions of compounds as well as ATP (Sigma A7699) and BzATP (Sigma B6396) were prepared fresh for each day of experiment.
1321N1 cells stably expressing the full length human P2X7 gene (1321N1-hP2X7) and HEK293 cells stably expressing the full length rat P2X7 gene (HEK293-rP2X7) were obtained from the Roche Cell Culture Facility. 1321N1-hP2X7 cells were grown in Dulbecco's Modified Eagle's Medium (DMEM) high glucose supplemented with 10% FBS and 250 μg/mL G418. HEK293-rP2X7 cells were grown in DMEM/F-12 supplemented with 10% FBS, 1 mM CaCl2, 2 mM MgCl2, 2 mM L-Glutamine and 500 μg/ml G418. Cells were split such that they never became >70% confluent.
On the day prior to the experiment, 1321N1-hP2X7 or HEK293-rP2X7 cells were released into suspension with calcium-free PBS+Versene and washed by centrifugation with calcium-free PBS to remove the Versene. Cells were resuspended in growth medium at a density of 2.5×10^5 cells/mL and seeded into black walled, clear bottom 96 well plates (50,000 cells/well) approximately 18 hr prior to intracellular calcium flux experiments.
On the day of the experiment, plates were washed with FLIPR buffer (calcium- and magnesium-free Hank's Balanced Salt Solution (HBSS) supplemented with 10 mM Hepes, 2.5 mM probenecid and 2 mM calcium chloride) using a BIO-TEK 96 channel plate washer and incubated with […] fluo-3 dye at 37° C. for one hr. The dye was then removed by plate washing and the cells were allowed to equilibrate for 20 min at room temperature with antagonist or vehicle (FLIPR buffer). Agonist (100 μM BzATP final concentration for hP2X7; 5 μM BzATP final concentration or rP2X7) was added online with the FLIPR and fluorescence measurements made at 1 sec intervals for 60 sec followed by 3 sec intervals for a further 4 min (5 min total). A final addition of 5 μM ionomycin was made and the maximal BzATP-evoked fluorescence normalized to the maximal ionomycin-evoked fluorescence.
Background: A change in cytosolic calcium serves as a functional read-out for many receptors and channels.

What is called melting point is the temperature, or range, at which the solid turns liquid.

In turn, `O=C(Nc1nc2ccccc2o1)C(Cc1ccc(F)cc1)c1ccc(F)cc1F` (stereo not drawn) [Compound I-29, N-Benzooxazol-2-yl-2-(2,4-difluoro-phenyl)-3-(4-fluoro-phenyl)-propionamide] showed a melting point of 177.5 to 177.9 °C. In addition, the IC50 at human P2X7 is 501 nM.
Taken in the same sequence, the figures for `CCOC(=O)c1ccc(C(Cc2ccc(F)cc2)C(=O)Nc2nc3ccccc3o2)cc1` (stereo not drawn) [Compound I-30, 4-[1-(Benzooxazol-2-ylcarbamoyl)-2-(4-fluoro-phenyl)-ethyl]-benzoic acid ethyl ester] were 122 to 125 °C and 457 nM.
In the case of `CC(C)(O)c1ccc(C(Cc2ccc(F)cc2)C(=O)Nc2nc3ccccc3o2)cc1` (stereo not drawn) [Compound I-31, N-Benzooxazol-2-yl-3-(4-fluoro-phenyl)-2-[4-(1-hydroxy-1-methyl-ethyl)-phenyl]-propionamide], the melting point was in the range of 87 to 90 °C. The IC50 on human P2X7 is 282 nM.
`NC(=O)c1ccc(C(Cc2ccc(F)cc2)C(=O)Nc2nc3ccccc3o2)cc1` (stereo not drawn) [Compound I-32, 4-[1-(Benzooxazol-2-ylcarbamoyl)-2-(4-fluoro-phenyl)-ethyl]-benzamide]: the melting point was 137 to 139 °C. For the same molecule, the IC50 on human P2X7 is 20.4 nM.
In turn, `O=C(NCCO)c1ccc(C(Cc2ccc(F)cc2)C(=O)Nc2nc3ccccc3o2)cc1` (stereo not drawn) [Compound I-33, 4-[1-(Benzooxazol-2-ylcarbamoyl)-2-(4-fluoro-phenyl)-ethyl]-N-(2-hydroxy-ethyl)-benzamide] gave a melting point of 134 to 136 °C. Further, the IC50 at human P2X7 was 347 nM.
The molecule `CN(C)CCNC(=O)c1ccc(C(Cc2ccc(F)cc2)C(=O)Nc2nc3ccccc3o2)cc1` (stereo not drawn) [Compound I-34, 4-[1-(Benzooxazol-2-ylcarbamoyl)-2-(4-fluoro-phenyl)-ethyl]-N-(2-dimethylamino-ethyl)-benzamide] displayed a melting point of 149 to 151 °C. For the same molecule, on human P2X7, the IC50 is 389 nM.

The values above are taken from patent publication US20120149718A1, “Amido Compounds” (priority 2010, published 2012).
